Results reported in patent US20030162803A1, “Anhydrovinblastine for the treatment of cancer” (priority 1997, published 2003).

What was measured:
[1] = Phase I clinical trial, pharmacokinetics (serum, HPLC, 2-compartment model); assay type: in vivo, human patients; design: AUC: unit not given here
Protocol: AHVB blood serum concentrations were measured at 0, 0.33, 0.67, 1, 1.25, 1.5, 2, 4, 6, 8, 12, 24, 48, and 72 hrs after the start of each infusion. […] The serum extracts were assayed using high pressure liquid chromatography (HPLC) and were fit to a 2-compartment pharmacokinetic model for determination of pharmacokinetic parameters (see Table 5).
There appears to be no significant change in clearance observed between smaller and larger doses (p>0.2 by linear regression). […] Similarly, AUC appeared to increase linearly with dose (r^2=0.82, p<0.05) (FIG. 12).

[2] = Toxicological studies in dogs; assay type: in vivo
[3] = tested on: H460 human non-small cell lung carcinoma, C-4 human cervical carcinoma, K562 human leukaemia, and the A431 human epidermoid cell lines; assay: MTT cytotoxicity assay, 72 hours, panel of human cancer cell lines; assay type: cell-based

CCC1=C[C@H]2CN(CCc3c([nH]c4ccccc34)[C@@](C(=O)OC)(c3cc4c(cc3OC)N(C)[C@H]3[C@@](O)(C(=O)OC)[C@H](OC(C)=O)[C@]5(CC)C=CCN6CC[C@]43[C@@H]65)C2)C1 [AHVB, 3′,4′-anhydrovinblastine]
pharmacokinetics, dose linearity ([1]; 2.5-30 mg/m^2, 1 hour infusion): linear
T1/2 al ([1]; All Data, N 20, Max): 0.393 h
T1/2 be ([1]; All Data, N 20, Max): 63.10 h
T1/2 al (alpha half-life) ([1]; All Data, N 20, Mean): 0.19 h
T1/2 be (beta half-life) ([1]; All Data, N 20, Mean): 20.8 h
T1/2 al ([1]; All Data, N 20, Median): 0.17 h
T1/2 be ([1]; All Data, N 20, Median): 17.60 h
T1/2 al ([1]; All Data, N 20, Min): 0.07 h
T1/2 be ([1]; All Data, N 20, Min): 6.63 h
A ([1]; dose 2.5 mg/m^2, N 1, Value): 134.71 ng/mL
AUC ([1]; dose 2.5 mg/m^2, N 1, Value): 71.64
B ([1]; dose 2.5 mg/m^2, N 1, Value): 5.03 ng/mL
Cmax ([1]; dose 2.5 mg/m^2, N 1, Value): 28.23 ng/mL
T1/2 al ([1]; dose 2.5 mg/m^2, N 1, Value): 0.12 h
T1/2 be ([1]; dose 2.5 mg/m^2, N 1, Value): 6.63 h
A ([1]; dose 5 mg/m^2, N 3, Max): 531.52 ng/mL
AUC ([1]; dose 5 mg/m^2, N 3, Max): 793.39
B ([1]; dose 5 mg/m^2, N 3, Max): 9.73 ng/mL
Cmax ([1]; dose 5 mg/m^2, N 3, Max): 62.40 ng/mL
T1/2 al ([1]; dose 5 mg/m^2, N 3, Max): 0.17 h
T1/2 be ([1]; dose 5 mg/m^2, N 3, Max): 63.13 h
A ([1]; dose 5 mg/m^2, N 3, Mean): 281.82 ng/mL
AUC ([1]; dose 5 mg/m^2, N 3, Mean): 571.75
B ([1]; dose 5 mg/m^2, N 3, Mean): 8.04 ng/mL
Cmax ([1]; dose 5 mg/m^2, N 3, Mean): 51.37 ng/mL
T1/2 al ([1]; dose 5 mg/m^2, N 3, Mean): 0.14 h
T1/2 be ([1]; dose 5 mg/m^2, N 3, Mean): 44.36 h
A ([1]; dose 5 mg/m^2, N 3, Median): 178.39 ng/mL
AUC ([1]; dose 5 mg/m^2, N 3, Median): 639.67
B ([1]; dose 5 mg/m^2, N 3, Median): 8.11 ng/mL
Cmax ([1]; dose 5 mg/m^2, N 3, Median): 53.07 ng/mL
T1/2 al ([1]; dose 5 mg/m^2, N 3, Median): 0.17 h
T1/2 be ([1]; dose 5 mg/m^2, N 3, Median): 42.41 h
A ([1]; dose 5 mg/m^2, N 3, Min): 135.55 ng/mL
AUC ([1]; dose 5 mg/m^2, N 3, Min): 282.20
B ([1]; dose 5 mg/m^2, N 3, Min): 6.27 ng/mL
Cmax ([1]; dose 5 mg/m^2, N 3, Min): 38.65 ng/mL
T1/2 al ([1]; dose 5 mg/m^2, N 3, Min): 0.07 h
T1/2 be ([1]; dose 5 mg/m^2, N 3, Min): 27.54 h
A ([1]; dose 10 mg/m^2, N 1, Value): 109.85 ng/mL
AUC ([1]; dose 10 mg/m^2, N 1, Value): 247.19
B ([1]; dose 10 mg/m^2, N 1, Value): 11.49 ng/mL
Cmax ([1]; dose 10 mg/m^2, N 1, Value): 48.57 ng/mL
T1/2 al ([1]; dose 10 mg/m^2, N 1, Value): 0.25 h
T1/2 be ([1]; dose 10 mg/m^2, N 1, Value): 12.50 h
A ([1]; dose 16.5 mg/m^2, N 5, Max): 816.42 ng/mL
AUC ([1]; dose 16.5 mg/m^2, N 5, Max): 1791.22
B ([1]; dose 16.5 mg/m^2, N 5, Max): 34.16 ng/mL
Cmax ([1]; dose 16.5 mg/m^2, N 5, Max): 231.52 ng/mL
T1/2 al ([1]; dose 16.5 mg/m^2, N 5, Max): 0.39 h
T1/2 be ([1]; dose 16.5 mg/m^2, N 5, Max): 33.52 h
A ([1]; dose 16.5 mg/m^2, N 5, Mean): 509.47 ng/mL
AUC ([1]; dose 16.5 mg/m^2, N 5, Mean): 824.58
B ([1]; dose 16.5 mg/m^2, N 5, Mean): 22.50 ng/mL
Cmax ([1]; dose 16.5 mg/m^2, N 5, Mean): 163.03 ng/mL
T1/2 al ([1]; dose 16.5 mg/m^2, N 5, Mean): 0.22 h
T1/2 be ([1]; dose 16.5 mg/m^2, N 5, Mean): 21.35 h
A ([1]; dose 16.5 mg/m^2, N 5, Median): 478.82 ng/mL
AUC ([1]; dose 16.5 mg/m^2, N 5, Median): 541.21
B ([1]; dose 16.5 mg/m^2, N 5, Median): 21.87 ng/mL
Cmax ([1]; dose 16.5 mg/m^2, N 5, Median): 171.48 ng/mL
T1/2 al ([1]; dose 16.5 mg/m^2, N 5, Median): 0.20 h
T1/2 be ([1]; dose 16.5 mg/m^2, N 5, Median): 21.82 h
A ([1]; dose 16.5 mg/m^2, N 5, Min): 263.49 ng/mL
AUC ([1]; dose 16.5 mg/m^2, N 5, Min): 511.26
B ([1]; dose 16.5 mg/m^2, N 5, Min): 6.64 ng/mL
Cmax ([1]; dose 16.5 mg/m^2, N 5, Min): 96.35 ng/mL
T1/2 al ([1]; dose 16.5 mg/m^2, N 5, Min): 0.13 h
T1/2 be ([1]; dose 16.5 mg/m^2, N 5, Min): 8.21 h
A ([1]; dose 21 mg/m^2, N 3, Max): 1197.78 ng/mL
AUC ([1]; dose 21 mg/m^2, N 3, Max): 1402.11
B ([1]; dose 21 mg/m^2, N 3, Max): 28.54 ng/mL
Cmax ([1]; dose 21 mg/m^2, N 3, Max): 340.46 ng/mL
T1/2 al ([1]; dose 21 mg/m^2, N 3, Max): 0.39 h
T1/2 be ([1]; dose 21 mg/m^2, N 3, Max): 30.50 h
A ([1]; dose 21 mg/m^2, N 3, Mean): 774.37 ng/mL
AUC ([1]; dose 21 mg/m^2, N 3, Mean): 1094.91
B ([1]; dose 21 mg/m^2, N 3, Mean): 25.92 ng/mL
Cmax ([1]; dose 21 mg/m^2, N 3, Mean): 257.21 ng/mL
T1/2 al ([1]; dose 21 mg/m^2, N 3, Mean): 0.26 h
T1/2 be ([1]; dose 21 mg/m^2, N 3, Mean): 22.88 h
A ([1]; dose 21 mg/m^2, N 3, Median): 802.43 ng/mL
AUC ([1]; dose 21 mg/m^2, N 3, Median): 964.03
B ([1]; dose 21 mg/m^2, N 3, Median): 24.72 ng/mL
Cmax ([1]; dose 21 mg/m^2, N 3, Median): 252.10 ng/mL
T1/2 al ([1]; dose 21 mg/m^2, N 3, Median): 0.20 h
T1/2 be ([1]; dose 21 mg/m^2, N 3, Median): 19.15 h
A ([1]; dose 21 mg/m^2, N 3, Min): 322.90 ng/mL
AUC ([1]; dose 21 mg/m^2, N 3, Min): 918.58
B ([1]; dose 21 mg/m^2, N 3, Min): 24.50 ng/mL
Cmax ([1]; dose 21 mg/m^2, N 3, Min): 179.07 ng/mL
T1/2 al ([1]; dose 21 mg/m^2, N 3, Min): 0.19 h
T1/2 be ([1]; dose 21 mg/m^2, N 3, Min): 19.00 h
A ([1]; dose 25 mg/m^2, N 6, Max): 1952.78 ng/mL
AUC ([1]; dose 25 mg/m^2, N 6, Max): 1202.01
B ([1]; dose 25 mg/m^2, N 6, Max): 48.76 ng/mL
Cmax ([1]; dose 25 mg/m^2, N 6, Max): 368.79 ng/mL
T1/2 al ([1]; dose 25 mg/m^2, N 6, Max): 0.36 h
T1/2 be ([1]; dose 25 mg/m^2, N 6, Max): 16.29 h
A ([1]; dose 25 mg/m^2, N 6, Mean): 1122.91 ng/mL
AUC ([1]; dose 25 mg/m^2, N 6, Mean): 764.83
B ([1]; dose 25 mg/m^2, N 6, Mean): 34.51 ng/mL
Cmax ([1]; dose 25 mg/m^2, N 6, Mean): 273.43 ng/mL
T1/2 al ([1]; dose 25 mg/m^2, N 6, Mean): 0.18 h
T1/2 be ([1]; dose 25 mg/m^2, N 6, Mean): 10.68 h
A ([1]; dose 25 mg/m^2, N 6, Median): 1062.6 ng/mL
AUC ([1]; dose 25 mg/m^2, N 6, Median): 750.85
B ([1]; dose 25 mg/m^2, N 6, Median): 35.06 ng/mL
Cmax ([1]; dose 25 mg/m^2, N 6, Median): 287.71 ng/mL
T1/2 al ([1]; dose 25 mg/m^2, N 6, Median): 0.16 h
T1/2 be ([1]; dose 25 mg/m^2, N 6, Median): 10.54 h
A ([1]; dose 25 mg/m^2, N 6, Min): 379.79 ng/mL
AUC ([1]; dose 25 mg/m^2, N 6, Min): 436.85
B ([1]; dose 25 mg/m^2, N 6, Min): 20.78 ng/mL
Cmax ([1]; dose 25 mg/m^2, N 6, Min): 108.52 ng/mL
T1/2 al ([1]; dose 25 mg/m^2, N 6, Min): 0.11 h
T1/2 be ([1]; dose 25 mg/m^2, N 6, Min): 6.73 h
A ([1]; dose 30 mg/m^2, N 1, Value): 3559.02 ng/mL
AUC ([1]; dose 30 mg/m^2, N 1, Value): 1797.92
B ([1]; dose 30 mg/m^2, N 1, Value): 36.71 ng/mL
Cmax ([1]; dose 30 mg/m^2, N 1, Value): 571.08 ng/mL
T1/2 al ([1]; dose 30 mg/m^2, N 1, Value): 0.10 h
T1/2 be ([1]; dose 30 mg/m^2, N 1, Value): 23.83 h
toxicities [2]: reversible myelosupression and gastrointestinal toxicities
IC50 ([3]; drug exposure time 72 hours, range over H460, C-4, K562, A431): 20 to 24 nM
fold less active than Navelbine in vitro ([3]; same cell lines): approximately 10 fold
